Experimental data: ChEMBL document CHEMBL1201862, “PubChem BioAssay data set” (2004)
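Growth conditions: 96-well plates. Treatment: test compound, 48 hours, 5 concentrations. Analysis: linear interpolation between bracketing concentrations; unreached endpoints set to highest concentration. GI50 is the concentration that inhibits growth by half.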 Active and inactive are the calls of the source. Rule as the data show it: active = GI50 up to about 1.1 µM and inactive = higher.

Key:
Assay in all cases: NCI tumour cell line growth inhibition, 48 h
[1] = test system: 786-0
[2] = test system: NCI/ADR-RES
[3] = test system: MOLT-4
[4] = test system: UACC-62
[5] = test system: MCF7
[6] = test system: NCI-H23
[7] = test system: KM12
[8] = test system: TK-10
[9] = test system: MDA-N
[10] = test system: SN12C
[11] = test system: CAKI-1
[12] = test system: DU-145
[13] = test system: NCI-H226
[14] = test system: NCI-H522
[15] = test system: OVCAR-3
[16] = test system: RXF 393
[17] = test system: CCRF-CEM
[18] = test system: HOP-62
[19] = test system: LOX IMVI

Measured: GI50

Cc1cccc2c1nc1n2C(=O)c2ccccc2-1
inactive: [1] > 100 µM | [2] > 100 µM | [3] > 100 µM | [4] > 100 µM | [5] > 100 µM | [6] > 100 µM | [7] > 100 µM | [8] > 100 µM | [9] > 100 µM | [10] > 100 µM | [11] > 100 µM | [12] > 100 µM | [13] > 100 µM | [14] > 100 µM | [15] > 100 µM | [16] > 100 µM | [17] > 100 µM

CC(C)C(Br)CCC1=CCC(Br)(Br)C1 (stereo not given)
inactive: [1] 15.7 µM | [2] 22.6 µM | [3] 3.48 µM | [4] 6.58 µM | [5] 10.8 µM | [6] 9.1 µM | [7] 13.3 µM | [8] 17.5 µM | [9] 2.94 µM | [10] 4.2 µM | [11] 17.2 µM | [12] 18.4 µM | [13] 11.9 µM | [14] 2.35 µM | [15] 13 µM | [18] 17 µM | [16] 15.2 µM | [19] 1.41 µM | [17] 2.79 µM

O=c1oc2ccc(Cl)cc2cc1C1=CSC2=NCCN12
inactive: [1] 18.4 µM | [2] 44.4 µM | [3] 17.9 µM | [4] 19.5 µM | [5] 19.6 µM | [6] 21.4 µM | [7] 19.8 µM | [8] 27.1 µM | [9] 20.8 µM | [10] 17.4 µM | [11] 44.5 µM | [12] 19.3 µM | [14] 18.7 µM | [15] 18.4 µM | [18] 17.4 µM | [16] 21.3 µM | [19] 18.9 µM | [17] 20.4 µM

NC(=O)OCc1c(-c2ccccc2)nn(-c2ccccc2)c1COC(N)=O
inactive: [1] > 100 µM | [2] > 100 µM | [4] > 100 µM | [5] > 100 µM | [6] > 100 µM | [7] > 100 µM | [8] > 100 µM | [9] > 100 µM | [10] > 100 µM | [11] > 100 µM | [12] > 100 µM | [13] > 100 µM | [14] > 100 µM | [15] > 100 µM | [16] > 100 µM

CC(SC(=S)N1CCOCC1)C(=O)Nc1nnc(-c2ccccc2)o1 (stereo not given)
inactive: [1] 83.2 µM | [2] 26.1 µM | [3] 36.8 µM | [5] 60.1 µM | [6] > 100 µM | [7] > 100 µM | [8] > 100 µM | [9] > 100 µM | [10] 93.3 µM | [11] > 100 µM | [12] > 100 µM | [13] > 100 µM | [14] 39.8 µM | [15] > 100 µM | [18] > 100 µM | [16] > 100 µM | [19] 71.4 µM | [17] 4.23 µM

O=S(=O)(CC(Cl)c1ccccc1)c1nc2ccccc2s1 (stereo not given)
inactive: [1] 6.95 µM | [2] 10.7 µM | [3] 2.81 µM | [4] 15.1 µM | [5] 7.48 µM | [6] 8.38 µM | [7] 17.2 µM | [8] 19.5 µM | [9] 6.22 µM | [10] 10.2 µM | [11] 2.24 µM | [12] 16.5 µM | [13] 8.11 µM | [14] 1.85 µM | [15] 8.53 µM | [18] 23.1 µM | [16] 15 µM | [19] 1.5 µM | [17] 1.7 µM

CCCCCCCCCCCCCCCCCc1cccc(OCOCCOC)c1C(=O)O
inactive: [1] 18.6 µM | [2] 14.5 µM | [3] 21.5 µM | [4] 17.7 µM | [5] 21.7 µM | [6] 15.2 µM | [7] 17.1 µM | [8] 18.9 µM | [9] 19.1 µM | [10] 22.4 µM | [11] 19.1 µM | [12] 17.7 µM | [13] 17 µM | [14] 14.9 µM | [15] 16.9 µM | [18] 18.8 µM | [16] 17.9 µM | [19] 24.6 µM | [17] 26.7 µM
